Experimental data from US12233161B1, “Lipids and lipid nanoparticle formulations” (LONGUIDE BIOPHARMA CORPORATION, priority 2024, dated 2025).

How the values were obtained:
mice = assay: In vivo delivery of FLuc-mRNA lipid nanoparticles in mice, in vivo imaging (IVIS)
Method in brief: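 Mice (n=3) received about 75 μL FLuc-mRNA LNP per mouse intramuscularly (rectus femoris), intravenously (tail vein), intraperitoneally or subcutaneously (back). After injection, D-luciferin (200 μL, 15 mg/mL) was given i.p. 10-15 min before IVIS imaging.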

[1] = Particle size and PDI of nucleic acid lipid nanoparticle preparations by dynamic light scattering; type: physicochemical
Method in brief: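 Nanoparticle suspension (about 0.04 mg/mL mRNA) diluted in ultrapure water, mixed by gentle pipetting; particle size measured by dynamic light scattering. Zeta potential measured on the recovered sample after further dilution in ultrapure water.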

[2] = Potential characterization of nucleic acid lipid nanoparticle preparations; type: physicochemical
Method in brief: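 Nanoparticles (about 0.04 mg/mL mRNA) were diluted in ultrapure water for Malvern ZEN3700 measurement: 20 μL into 780 μL for potential alone, or 27.5 μL into 200 μL for DLS particle size followed by addition of 600 μL water for potential.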

[3] = DMG-PEG2000:DSPC:Chol:Lipid 1.50:11.50:17.00:70.00, N/P 30, IV, liver
[4] = DMG-PEG2000:DSPC:Chol:Lipid 1.50:11.50:17.00:70.00, N/P 30, IV, lung
[5] = DMG-PEG2000:DSPC:Chol:Lipid 1.50:11.50:17.00:70.00, N/P 30, IV, spleen
[6] = DMG-PEG2000:DSPC:Chol:Lipid 1.50:11.50:37.00:50.00, N/P 30, IV, liver
[7] = DMG-PEG2000:DSPC:Chol:Lipid 1.50:11.50:37.00:50.00, N/P 30, IV, lung
[8] = DMG-PEG2000:DSPC:Chol:Lipid 1.50:11.50:37.00:50.00, N/P 30, IV, spleen
[9] = DMG-PEG2000:DSPC:Chol:Lipid 1.50:11.50:57.00:30.00, N/P 30, IV, liver
[10] = DMG-PEG2000:DSPC:Chol:Lipid 1.50:11.50:57.00:30.00, N/P 30, IV, lung
[11] = DMG-PEG2000:DSPC:Chol:Lipid 1.50:11.50:57.00:30.00, N/P 30, IV, spleen
[12] = DMG-PEG2000:DSPC:Chol:Lipid 2.50:11.50:51.00:35.00, N/P 18, IV, liver
[13] = DMG-PEG2000:DSPC:Chol:Lipid 2.50:11.50:51.00:35.00, N/P 18, IV, lung
[14] = DMG-PEG2000:DSPC:Chol:Lipid 2.50:11.50:51.00:35.00, N/P 18, IV, spleen
[15] = DMG-PEG2000:DSPC:Chol:Lipid 1.50:11.50:17.00:70.00, N/P 30, mRNA LNP
[16] = DMG-PEG2000:DSPC:Chol:Lipid 1.50:11.50:37.00:50.00, N/P 30, mRNA LNP
[17] = DMG-PEG2000:DSPC:Chol:Lipid 1.50:11.50:57.00:30.00, N/P 30, mRNA LNP
[18] = DMG-PEG2000:DSPC:Chol:Lipid 1.71:12.98:45.31:40.00, N/P 30, mRNA LNP
[19] = DMG-PEG2000:DSPC:Chol:Lipid 2.50:11.50:51.00:35.00, N/P 18, mRNA LNP
[20] = DMG-PEG2000:DSPC:Chol:compound 1.50:30.00:33.50:35.00, N/P 9
[21] = DMG-PEG2000:DSPC:Chol:compound 1.50:30.00:48.50:20.00, N/P 9
[22] = DMG-PEG2000:DSPC:Chol:compound 1.50:30.00:58.50:10.00, N/P 9
[23] = DMG-PEG2000:DSPC:Chol:compound 1.50:30.00:63.50:5.00, N/P 9

Compound: CCCCCCCCCCCCOC(=O)C(O)CN(CCCN(C)CCCN(CC(O)C(=O)OCCCCCCCCCCCC)CC(O)C(=O)OCCCCCCCCCCCC)CC(O)C(=O)OCCCCCCCCCCCC (centres unmarked) [Compound L0261]
- IVIS (mice; DMG-PEG2000:DSPC:Chol:Lipid 1.50:11.50:17.00:70.00, N/P 30, IV, body): 4.64 × 10^7
- % of organ targeting (mice; [3]): 1.68%
- IVIS (mice; [3]): 1.65 × 10^6
- % of organ targeting (mice; [4]): 91.29%
- IVIS (mice; [4]): 8.93 × 10^7
- % of organ targeting (mice; [5]): 7.03%
- IVIS (mice; [5]): 6.88 × 10^6
- IVIS (mice; DMG-PEG2000:DSPC:Chol:Lipid 1.50:11.50:37.00:50.00, N/P 30, IV, body): 1.09 × 10^8
- % of organ targeting (mice; [6]): 30.20%
- IVIS (mice; [6]): 1.83 × 10^7
- % of organ targeting (mice; [7]): 30.87%
- IVIS (mice; [7]): 1.87 × 10^7
- % of organ targeting (mice; [8]): 38.93%
- IVIS (mice; [8]): 2.36 × 10^7
- IVIS (mice; DMG-PEG2000:DSPC:Chol:Lipid 1.50:11.50:57.00:30.00, N/P 30, IV, body): 5.88 × 10^7
- % of organ targeting (mice; [9]): 17.84%
- IVIS (mice; [9]): 1.20 × 10^7
- % of organ targeting (mice; [10]): 7.50%
- IVIS (mice; [10]): 5.06 × 10^6
- % of organ targeting (mice; [11]): 74.66%
- IVIS (mice; [11]): 5.03 × 10^7
- IVIS (mice; DMG-PEG2000:DSPC:Chol:Lipid 1.71:12.98:45.31:40.00, N/P 30, IM, whole body scan): 5.24 × 10^6
- IVIS (mice; DMG-PEG2000:DSPC:Chol:Lipid 2.50:11.50:51.00:35.00, N/P 18, IV, body): 4.72 × 10^7
- % of organ targeting (mice; [12]): 6.56%
- IVIS (mice; [12]): 3.81 × 10^6
- % of organ targeting (mice; [13]): 1.88%
- IVIS (mice; [13]): 1.09 × 10^6
- % of organ targeting (mice; [14]): 91.57%
- IVIS (mice; [14]): 5.33 × 10^7
- IVIS (mice; IV, body, DMG-PEG2000:DSPC:Chol:compound 1.50:30.00:33.50:35.00, N/P 9, Fluc-mRNA): 2.66E+07
- IVIS (mice; IV, body, DMG-PEG2000:DSPC:Chol:compound 1.50:30.00:48.50:20.00, N/P 9, Fluc-mRNA): 1.18E+07
- IVIS (mice; IV, body, DMG-PEG2000:DSPC:Chol:compound 1.50:30.00:58.50:10.00, N/P 9, Fluc-mRNA): 2.03E+06
- IVIS (mice; IV, body, DMG-PEG2000:DSPC:Chol:compound 1.50:30.00:63.50:5.00, N/P 9, Fluc-mRNA): 1.06E+06
- % of organ targeting (mice; IV, liver, DMG-PEG2000:DSPC:Chol:compound 1.50:30.00:33.50:35.00, N/P 9): 3.86%
- IVIS (mice; IV, liver, DMG-PEG2000:DSPC:Chol:compound 1.50:30.00:33.50:35.00, N/P 9, Fluc-mRNA): 1.00E+06
- % of organ targeting (mice; IV, liver, DMG-PEG2000:DSPC:Chol:compound 1.50:30.00:48.50:20.00, N/P 9): 8.55%
- IVIS (mice; IV, liver, DMG-PEG2000:DSPC:Chol:compound 1.50:30.00:48.50:20.00, N/P 9, Fluc-mRNA): 1.65E+06
- % of organ targeting (mice; IV, liver, DMG-PEG2000:DSPC:Chol:compound 1.50:30.00:58.50:10.00, N/P 9): 36.36%
- IVIS (mice; IV, liver, DMG-PEG2000:DSPC:Chol:compound 1.50:30.00:58.50:10.00, N/P 9, Fluc-mRNA): 7.14E+05
- % of organ targeting (mice; IV, liver, DMG-PEG2000:DSPC:Chol:compound 1.50:30.00:63.50:5.00, N/P 9): 26.05%
- IVIS (mice; IV, liver, DMG-PEG2000:DSPC:Chol:compound 1.50:30.00:63.50:5.00, N/P 9, Fluc-mRNA): 1.91E+05
- % of organ targeting (mice; IV, lung, DMG-PEG2000:DSPC:Chol:compound 1.50:30.00:33.50:35.00, N/P 9): 2.02%
- IVIS (mice; IV, lung, DMG-PEG2000:DSPC:Chol:compound 1.50:30.00:33.50:35.00, N/P 9, Fluc-mRNA): 5.23E+05
- % of organ targeting (mice; IV, lung, DMG-PEG2000:DSPC:Chol:compound 1.50:30.00:48.50:20.00, N/P 9): 4.05%
- IVIS (mice; IV, lung, DMG-PEG2000:DSPC:Chol:compound 1.50:30.00:48.50:20.00, N/P 9, Fluc-mRNA): 7.80E+05
- % of organ targeting (mice; IV, lung, DMG-PEG2000:DSPC:Chol:compound 1.50:30.00:58.50:10.00, N/P 9): 4.39%
- IVIS (mice; IV, lung, DMG-PEG2000:DSPC:Chol:compound 1.50:30.00:58.50:10.00, N/P 9, Fluc-mRNA): 8.62E+04
- % of organ targeting (mice; IV, lung, DMG-PEG2000:DSPC:Chol:compound 1.50:30.00:63.50:5.00, N/P 9): 7.91%
- IVIS (mice; IV, lung, DMG-PEG2000:DSPC:Chol:compound 1.50:30.00:63.50:5.00, N/P 9, Fluc-mRNA): 5.78E+04
- % of organ targeting (mice; IV, spleen, DMG-PEG2000:DSPC:Chol:compound 1.50:30.00:33.50:35.00, N/P 9): 94.12%
- IVIS (mice; IV, spleen, DMG-PEG2000:DSPC:Chol:compound 1.50:30.00:33.50:35.00, N/P 9, Fluc-mRNA): 2.44E+07
- % of organ targeting (mice; IV, spleen, DMG-PEG2000:DSPC:Chol:compound 1.50:30.00:48.50:20.00, N/P 9): 87.40%
- IVIS (mice; IV, spleen, DMG-PEG2000:DSPC:Chol:compound 1.50:30.00:48.50:20.00, N/P 9, Fluc-mRNA): 1.68E+07
- % of organ targeting (mice; IV, spleen, DMG-PEG2000:DSPC:Chol:compound 1.50:30.00:58.50:10.00, N/P 9): 59.25%
- IVIS (mice; IV, spleen, DMG-PEG2000:DSPC:Chol:compound 1.50:30.00:58.50:10.00, N/P 9, Fluc-mRNA): 1.16E+06
- % of organ targeting (mice; IV, spleen, DMG-PEG2000:DSPC:Chol:compound 1.50:30.00:63.50:5.00, N/P 9): 66.04%
- IVIS (mice; IV, spleen, DMG-PEG2000:DSPC:Chol:compound 1.50:30.00:63.50:5.00, N/P 9, Fluc-mRNA): 4.83E+05
- tissue-targeting specificity (lung vs spleen depending on molar percentage of compound) (mice; certain formulations, Table 2): strong tissue-targeting specificity
- PDI [1, 15]: 0.17 ± 0.01
- Particle size [1, 15]: 118.13 ± 0.40 nm
- PDI [1, 16]: 0.20 ± 0.01
- Particle size [1, 16]: 130.87 ± 0.87 nm
- PDI [1, 17]: 0.13 ± 0.02
- Particle size [1, 17]: 88.09 ± 0.52 nm
- PDI [1, 18]: 0.24 ± 0.02
- Particle size [1, 18]: 94.33 ± 1.52 nm
- PDI [1, 19]: 0.17 ± 0.01
- Particle size [1, 19]: 99.13 ± 0.78 nm
- PDI [1, 20]: 0.20
- Particle size (nm) [1, 20]: 141.40 nm
- PDI [1, 21]: 0.21
- Particle size (nm) [1, 21]: 107.23 nm
- PDI [1, 22]: 0.21
- Particle size (nm) [1, 22]: 136.30 nm
- PDI [1, 23]: 0.16
- Particle size (nm) [1, 23]: 128.87 nm
- Zeta potential (mV) [2, 20]: 16.03 mV
- Zeta potential (mV) [2, 21]: 14.53 mV
- Zeta potential (mV) [2, 22]: 15.47 mV
- Zeta potential (mV) [2, 23]: 16.57 mV
